Measured values published in paper PMC10117725, “From an Hsp90 - binding protein to a peptide drug” (microLife, 2022).
Where no end group is shown, it is not given here.

What was measured:
[1] = system: S. aureus USA300 infected PBMCs; test: Cytokine release of S. aureus USA300 infected PBMCs (ELISA); format: cell-based, human; settings: L15 20 µM, L13 30 µM, geldanamycin 5 µM; 20 h; n = 5; vs unstimulated infected PBMCs
N/TERT-1 cells = test: Cytotoxicity in N/TERT-1 cells at tested concentration; format: cell-based, human; settings: concentrations used in invasion studies (Fig. S1)
Method: MTT (3-(4,5-dimethylthiazol-2-yl)-2,5-diphenyl tetrazolium bromide) assay was employed to analyze the cytotoxicity of peptides and geldanamycin to the cells. 5 × 10^5 cells were seeded in a 96 flat bottom well plate and incubated for 2.5 or 24 h at 37°C with 5% CO2. The cells were then treated with increasing concentration (0 to 200 µM) of peptides or geldanamycin for 24 h. After the incubation, 10 μl of the MTT labelling reagent is added to each well to attain a final concentration 0.5 mg/ml, followed by 4 h incubation. Metabolically active cells convert the yellow tetrazolium salt to purple formazan crystals, which were solubilized using the solubilization solution (DMSO) and measured for absorbance at λmax/λref–570/690 nm (Saising et al. [2018]).

Hsp90α = target: T1, Hsp90α (Homo sapiens, UniProt P07900); format: binding; settings: dot blot, 2 µg blotted on membrane, 20 µg recombinant Hsp90α at 4°C overnight, α-Hsp90α immunodetection
T1 construct: purchased Abcam
Method: Two µg of each peptide was blotted (dot blot) directly on PDV nitrocellulose membrane and blocked with ROTI®Block (Carl Roth, Germany). After washing, the membrane was then incubated with 20 μg of recombinant Hsp90α (Abcam)/Lpl1-his protein at 4°C overnight. In case of interaction studies with Hsp90α, α-Hsp90α (produced in mouse, Abcam) was used as the primary antibody and for interaction studies with Lpl1-his, Anti-6X His tag antibody (also produced in mouse, Sigma-Aldrich, Germany) was used. Alkaline phosphatase conjugated goat-α-mouse IgG (Sigma-Aldrich, Germany) served as the secondary antibody. Detection was done using BCIP®/NBT solution (Sigma, Germany). Lpl1-his was isolated and purified as described in our previous paper (Tribelli et al. [2020]).

[2] = system: phagocytosis by primary human CD14+ monocytes; test: Phagocytosis of S. aureus USA300 by CD14+ monocytes; format: cell-based; settings: L15 20 µM, L13 30 µM, geldanamycin 5 µM, 60 min preincubation; MOI 30, 90 min; n = 4 donors; SEM
Method: Peripheral Blood Mononuclear cells (PBMCs) were isolated by density gradient centrifugation following the previous study (Nguyen et al. [2022]). From the pool of PBMCs, monocytes were isolated by positive selection with anti-human CD14 microbeads (Miltenyi Biotech, Bergisch-Gladbach, Germany) following a previously reported protocol (Nguyen et al. [2022]). The purity was analysed by flow cytometry on a BD Accuri C6 (BD Biosciences, Heidelberg, Germany) with anti-human CD14-FITC, CD45-PE and propidium iodide (BD Biosciences, Heidelberg, Germany) and ranged from 85% to 98%.
For the phagocytosis, 10^6 CD14^+ monocytes were seeded in 1 ml of medium (RPMI supplemented with L-Glutamine and 10% FCS) in a 12 well plate (Greiner, Germany). The cells were incubated with 20 µM of L15, 30 µM of L13, or 5 µM of Geldanamycin for 60 min at 37°C and 5% CO2 before addition of bacteria. For the phagocytosis assay, bacterial cells were resuspended in 100 µl RPMI medium at MOI of 30 and incubated with monocytes for 90 min. The cells were washed once with PBS and 0.5 ml of medium supplemented with 2.5 µg/ml of Lysostaphin was added for 90 min to remove the extracellular bacteria. Then, monocytes were washed twice with PBS and resuspended in 0.5 ml of milliQ dH2O. The cells were scraped, and the lysed solution was transferred into a new 1.5 ml Eppendorf tube for a 5 min sonication (frequency 80, power 100) at room temperature to prevent the bacterial cell clumping by using ultrasonic water bath Elmasonic P (Elma Schmidbauer Gmb, Singen, Germany). About 10 µl fractions of undiluted, 10^−1, 10^−2, and 10^−3 dilutions were inoculated on tryptic soy agar (TSA) plates and incubated overnight at 37°C. The numbers of internalized bacteria were determined based on the manual counting of bacterial colony forming units (cfu) recovered on the agar plates.

S. aureus Newman = test: Galleria mellonella larvae infection model, S. aureus Newman; format: in vivo; settings: peptides 60 mg/kg, vancomycin 20 mg/kg, injected 1 h before 10^6 cfu; 37°C
Method: Galleria mellonella larvae, purchased from Feeders & more GmbH, Germany, were sorted based on weight and used within one week. Ten larvae per group with weight average of 500 mg/larvae were injected with bacteria and/or peptides on its last proleg using a BD insulin syringe. The dosage used for the experiment were 60 mg/kg for peptides, 5 mg/kg of geldanamycin and 20 mg/kg for vancomycin. Each larva was injected with 10 µl of L15 (last left proleg) 1 h before administration of 10^6 cfu S. aureus (last right proleg). The larvae were maintained at 37°C and observed for mortality every day over the course of 5 days.

Staphylococcus aureus [3] = test: Hemolysin activity on sheep blood agar; format: cell-based; settings: impregnated discs on sheep blood agar, 37°C overnight
Method: About 6 mm Whatman empty Antibiotic Assay Discs were impregnated with L15 or L13 and allowed to dry. Once dried, the discs were placed on sheep blood agar plates, inoculated with S. aureus and incubated at 37°C overnight. The halo obtained was measured and compared.

Staphylococcus aureus [4] = test: Bacterial growth kinetics; format: cell-based; settings: OD578 every 1 h for 24 h, 37°C, TSB
Method: Staphylococcus aureus precultured in TSB overnight were inoculated to OD∼0.01 into a 48 well plate and L15 and L13 were added to study the effect of peptides on bacterial growth using Varioskan LUX Multimode Microplate Reader. With this instrument, a kinetic measurement of OD578 nm was obtained every 1 h for a total of 24 h, at 37°C with continuous shaking.

Sequence	IL-6 production of infected PBMCs [1]	toxicity to N/TERT-1 cells at tested concentration and exposure time (N/TERT-1 cells)	Interaction with Hsp90α (Hsp90α)	decrease of phagocytosis of S. aureus into CD14+ monocytes [2]	larvae surviving on day 5, S. aureus Newman (S. aureus Newman) [%]	effect on hemolysis activity of S. aureus (Staphylococcus aureus [3])	effect on growth of S. aureus (Staphylococcus aureus [4])
GHYFVTTFY [L13]	significantly increased	neither inhibit the viability of host cells	Yes	about 62.0 ± 6.80%	46	nor was hemolysis activity markedly affected	did not detect any effect on growth
TAKGHYFVTTFYRNG [L15]	significantly increased	neither inhibit the viability of host cells	Yes	about 22.6 ± 7.67%	36	nor was hemolysis activity markedly affected	did not detect any effect on growth
